{"source": "patent US20220251124A1", "about": "“3,5-BIS(PHENYL)-1H-HETEROARYL DERIVATIVES AS MEDICAMENTS” (INSTITUTE OF BIOTECHNOLOGY CAS, V.V.I., priority 2019, published 2022)", "key": {"[1]": {"system": "cancer cell lines", "assay": "crystal violet assay, cancer cell lines overall", "format": "cell-based", "settings": "as seen in previous tables", "method": "Compound 1 and a comparative compound deferasirox (DFX) were tested in their efficacy to kill/suppress proliferation of malignant breast cancer MCF7 cells representing estrogen-dependent type of breast cancer. Briefly, 10.000 cells per well were seeded in a 96-well plate on one day and the next day the tested compounds were added and incubated with the cells for 48 hrs. The cells were then fixed with 4% paraformaldehyde, stained with 0.05% crystal violet, washed with PBS, and solubilized in 1% SDS. The absorbance of the plate at 595 nm was then measured, quantifying the number of viable cells."}, "[2]": {"system": "MCF7", "assay": "cell cycle distribution, Vybrant DyeCycle Violet, flow cytometry", "format": "cell-based", "settings": "1 μM", "method": "(§1) In order to define the effect on cellular level, we investigated the effect of compound 1 and 2 at non-cytotoxic concentrations of the drugs (1 μM) on cell cycle. Cells were cultivated with the compounds for 24 and 48 hrs and then stained with Vybrant DyeCycle VioletReady Flow reagent (ThermoFisher Scientific) that binds to DNA and analyzed by Flow cytometry and Kaluza program to define the proportions of G1,S and G2/M phases of cell cycle. It is evident that both compounds lead to accumulation of cells in G1 phase if the cell cycle, which become more prominent at later time points (see Table 12, 13)."}, "[3]": {"system": "MDA-MB-231", "assay": "cell cycle distribution, Vybrant DyeCycle Violet, flow cytometry", "format": "cell-based", "settings": "1 μM", "method": "as §1"}, "[4]": {"system": "triple negative breast cancer cells (MDA-MB-231) xenograft", "assay": "tumor growth in xenograft model", "format": "in vivo, NOD/SCID gamma mice", "settings": "for relative tumor size compared to day 0: 2/week", "method": "The effect of compound 1 on tumor growth in vivo was assessed in a xenograft model of triple negative breast cancer cells (MDA-MB-231) injected into NOD/SCID gamma mice. 1×10^6 cells were injected subcutaneously into each mouse. When the tumors were approximately 10 mm^3 in volume, the animals were randomly divided in two groups and injected intra-peritoneally with either compound 1 (2 mg/kg in corn oil) or vehicle (2.5% DMSO in corn oil), twice per week for 21 days. Tumor size was determined by ultrasound using a Vevo 3100 Preclinical Imaging System (VisualSonics)."}, "[5]": {"system": "MCF7", "assay": "cellular ROS, DCF-DA probe, flow cytometry", "format": "cell-based", "settings": "5 μM", "method": "(§2) The effect of compound 1 on generation of cellular reactive oxygen species (ROS) was evaluated in MCF7 and MDA-MB-231 cells using a cell permeable ROS probe 2′,7′-dichlorodihydrofluorescein diacetate (DCF-DA; Sigma-Aldrich) that measures several reactive species and becomes fluorescent upon oxidation. Cells treated with compound 1 or compound 2 (5 μM) for the described time interval were stained with the probe and then analyzed via Flow cytometry."}, "[6]": {"system": "MDA-MB-231", "assay": "cellular ROS, DCF-DA probe, flow cytometry", "format": "cell-based", "settings": "5 μM", "method": "as §2"}, "[7]": {"system": "MCF7 mammospheres (cancer stem-like cells)", "assay": "formation and growth of mammospheres, Cell Titer Glo 3D", "format": "cell-based", "settings": "1 μM, 140 hrs", "method": "To test the effect of compound 1 on the viability and proliferation of other resistant cancer cell types, we utilized a model of cancer stem-like cells that can be cultivated in vitro, so-called “mammospheres”. […] In this assay MCF7 spheres were dissociated to single cells/small spheres, seeded 10,000 cells per well on a special cell culture plastic that is non adherent in the Mammocult medium (Stem cell technologies) and compound 1 and compound 2 at 1 μM were added. This represents the non-cytotoxic concentration. Cells were left to grow and generate spheres for 140 hrs. The amount of cells was then measured by the Cell TiterGlo 3D reagent (Promega) that determines cell counts of 3D cultured cells as a function of their ATP content that is determined by a chemiluminescent assay."}}, "data": [{"smiles": "O=C(NCCCCCCCCCC[P+](c1ccccc1)(c1ccccc1)c1ccccc1)c1ccc(-n2nc(-c3ccccc3O)nc2-c2ccccc2O)cc1", "note": "[Compound 1, (10-(4-(3,5-bis(2-hydroxyphenyl)-1H-1,2,4-triazol-1-yl)benzamido)decyl) triphenylphosphonium Chloride]", "values": [{"measurement": "efficacy against cancer cell lines", "setting": "[1]", "result": "10 to 100", "unit": "nM"}, {"measurement": "proportion of cells in G1", "setting": "[2]; 24 hrs", "result": "82.8 (1.6)"}, {"measurement": "proportion of cells in G2", "setting": "[2]; 24 hrs", "result": 13.2}, {"measurement": "proportion of cells in S", "setting": "[2]; 24 hrs", "result": 4.0}, {"measurement": "proportion of cells in G1", "setting": "[2]; 48 hrs", "result": "75.8 (2.1)"}, {"measurement": "proportion of cells in G2", "setting": "[2]; 48 hrs", "result": "12.4 (2.5)"}, {"measurement": "proportion of cells in S", "setting": "[2]; 48 hrs", "result": "11.9 (2.3)"}, {"measurement": "proportion of cells in G1", "setting": "[3]; 24 hrs", "result": "64.6 (2.0)"}, {"measurement": "proportion of cells in G2", "setting": "[3]; 24 hrs", "result": "27.7 (2.3)"}, {"measurement": "proportion of cells in S", "setting": "[3]; 24 hrs", "result": 7.7}, {"measurement": "proportion of cells in G1", "setting": "[3]; 48 hrs", "result": "65.0 (4.1)"}, {"measurement": "proportion of cells in G2", "setting": "[3]; 48 hrs", "result": "25.2 (3.3)"}, {"measurement": "proportion of cells in S", "setting": "[3]; 48 hrs", "result": 9.8}, {"measurement": "effect on tumor growth", "setting": "[4]; 2 mg/kg intra-peritoneally, twice per week for 21 days", "result": "significantly slows down the tumor growth"}, {"measurement": "relative tumor size compared to day 0", "setting": "[4]; day 4, 2 mg/kg intra-peritoneally", "result": "1.18 (0.3)"}, {"measurement": "relative tumor size compared to day 0", "setting": "[4]; day 7, 2 mg/kg intra-peritoneally", "result": "2.04 (0.3)"}, {"measurement": "relative tumor size compared to day 0", "setting": "[4]; day 10, 2 mg/kg intra-peritoneally", "result": "3.00 (0.4)"}, {"measurement": "relative tumor size compared to day 0", "setting": "[4]; day 14, 2 mg/kg intra-peritoneally", "result": "4.90 (0.8)"}, {"measurement": "relative tumor size compared to day 0", "setting": "[4]; day 17, 2 mg/kg intra-peritoneally", "result": "4.44 (0.3)"}, {"measurement": "relative tumor size compared to day 0", "setting": "[4]; day 21, 2 mg/kg intra-peritoneally", "result": "5.12 (0.6)"}, {"measurement": "DCF-DA mean fluorescence", "setting": "[5]; 5 min, MCF7 (0 min = 100)", "result": "161.3 (29.8)"}, {"measurement": "DCF-DA mean fluorescence", "setting": "[5]; 10 min, MCF7", "result": "172.0 (18.9)"}, {"measurement": "DCF-DA mean fluorescence", "setting": "[5]; 15 min, MCF7", "result": "283.8 (36.6)"}, {"measurement": "DCF-DA mean fluorescence", "setting": "[5]; 30 min, MCF7", "result": "857.2 (299.0)"}, {"measurement": "DCF-DA mean fluorescence", "setting": "[5]; 60 min, MCF7", "result": "1435.0 (452.9)"}, {"measurement": "DCF-DA mean fluorescence", "setting": "[6]; 5 min, MDA-MB-231 (0 min = 100)", "result": "129.9 (17.4)"}, {"measurement": "DCF-DA mean fluorescence", "setting": "[6]; 10 min, MDA-MB-231", "result": "207.8 (94.2)"}, {"measurement": "DCF-DA mean fluorescence", "setting": "[6]; 15 min, MDA-MB-231", "result": "258.3 (71.2)"}, {"measurement": "DCF-DA mean fluorescence", "setting": "[6]; 30 min, MDA-MB-231", "result": "437.5 (105.9)"}, {"measurement": "DCF-DA mean fluorescence", "setting": "[6]; 60 min, MDA-MB-231", "result": "529.5 (176.1)"}, {"measurement": "chemiluminescence ATP values normalized to control sample set as 100", "setting": "[7]", "result": "6.61 (1.91)"}]}]}
